One data set concerns the target human NK1 receptor (Homo sapiens (Human), UniProt P25103). The data set can be described thus: Affinity for human NK1 receptor (125I-substance P receptor binding test, membrane fraction). The conditions noted are these: membrane fraction of human NK1 receptor-expressing 293T cells; read-out: IC50 (nM), concentration required for 50% inhibition of 125I-substance P binding. On the procedure: Affinity for Human NK1 Receptor
(3) Measurement of Binding Affinity to Human NK1 Receptor
(3-1) Preparation of Membrane Fraction from Human NK1 Receptor-Expressing Cells
Human NK1 receptor-expressing cells were prepared in a 175 cm^2 culture flask (Nippon Becton Dickinson). The formation of a complex of the human NK1 receptor expression plasmid and Lipofectamine 2000 was performed by calculating the culture area ratio and increasing the scale of the method described in the above 2-4 by the ratio. The human NK1 receptor-expressing cells were collected in a buffer solution for the membrane fraction preparation (50 mM Tris (Wako Pure Chemical), 120 mM sodium chloride (Wako Pure Chemical Industries), 5 mM potassium chloride (Wako Pure Chemical Industries), 1 mM ethylenediaminetetraacetic acid (Sigma), 0.002 mg/mL chymostatin (Peptide Institute), 0.04 mg/bacitracin (Wako Pure Chemical Industries), 0.005 mg/mL phosphoramidon (Peptide Institute) and 0.5 mM phenylmethylsulfonyl fluoride (Wako Pure Chemical Industries), pH7.4) and centrifuged at 1,880 g for 10 minutes, and the cell sediment was suspended in the buffer solution for the membrane fraction preparation. After freezing and thawing the cells once, the cells were homogenized using a Dounce-type homogenizer (cooled on ice, 1000 rpm, 20 times) The homogenized cell suspension was centrifuged at 20,000 rpm for 10 minutes, and the supernatant was removed to obtain cell sediment. The cell sediment was suspended again in the buffer solution for the membrane fraction preparation and homogenized using a Dounce-type homogenizer (cooled on ice, 1000 rpm, 30 times). The cell suspension was centrifuged at 20,000 rpm for 10 minutes, and the supernatant was removed to obtain cell sediment. The same homogenization and centrifugation were repeated again, and final cell sediment was obtained. The final cell sediment was suspended in a buffer solution for the receptor binding test (50 mM Tris (Wako Pure Chemical Industries). 3 mM manganese chloride (Wako Pure Chemical Industries), 0.002 mg/mL chymostatin (Peptide Institute), 0.04 mg/bacitracin (Wako Pure Chemical Industries) and 0.02% bovine serum albumin (Sigma), pH 7.4), and the protein concentration was measured using BCA Protein Assay Kit (Pierce).
(3-2) Receptor Binding Test
The buffer solution for the receptor binding test was dispensed to the wells of a 96-well assay plate (Greiner) at 22.5 μL/well. DMSO solutions of a test compound, which were prepared at an 80-time higher concentration using 100% dimethyl sulfoxide (DMSO), were added to the wells at 2.5 μL/well (final concentrations of 1 nM to 100 nM), and the solutions were mixed. As a radiolabeled ligand, ^125I-substance P (Substance P, [^125I]Tyr^8-, Perkin Elmer) was used. ^125I-substance P was diluted with the buffer solution for the receptor binding test to a concentration resulting in 125 pmol/25 μL/well and added to the 96-well assay plate, and the solutions were mixed. The membrane fraction prepared from the human NK1 receptor-expressing cells was diluted with the buffer solution for the receptor binding test to a concentration resulting in 8 to 10 μg/well, suspended until the suspension became in such a homogenous state that the suspension could flow through a 27G injection needle smoothly and then added to the 96-well assay plate at 150 μL/well. Then, the plate was incubated at room temperature for 60 minutes while shaking the plate. The reaction solutions were suction-filtered through a multiscreen 96-well filter plate (Millipore) which had been pre-treated with 0.3% polyethyleneimine, and the reaction was terminated by washing with a washing solution (50 mM Tris and 0.02% bovine serum albumin, pH 7.4) four times. The bottom of the microplate was dried at 60° C., and then 100 μL/well of MicroScint 20 (PerkinElmer) was dispensed to the wells. The top of the plate was sealed with TopSeal A (PerkinElmer), and the plate was shaken for 5 to 10 minutes. […]

The nature of data set [1]: Measurement of drug concentrations in the brain after foot-tapping. The format is in vivo. The following applies: male gerbil, 0.1 mg/kg iv, after foot-tapping was finished. As to the method: (§1) A male gerbil (Japan SLC) was anesthetized with isoflurane, and 0.1 mg/kg of a test compound was administered from the jugular vein. After four hours. GR73632 (5 pmol/5 μl saline), which is an NK1 receptor agonist, was administered into the cerebral ventricle at the part 1 mm lateral to and 4.5 mm below the bregma in the head, under anesthesia with isoflurane. After the administration, the gerbil was moved to an observation cage, and the foot-tapping period during 30 minutes after the recovery of the righting reflex was measured. The foot-tapping inhibition rate (%) of each test compound was calculated by the following equation. Foot-tapping inhibition rate (%)−{1−(Fool-tapping period when test compound was administered)/(Foot-tapping period when solvent was administered)}×100 (2) Measurement of Drug Concentrations
After foot-tapping was finished, laparotomy was performed immediately under anesthesia with ether, and a blood sample was taken from the abdominal vena cava. At the same lime, the brain was extracted. Through a quantitative analysis using liquid chromatography-mass spectrometry (LC/MS), the concentrations of the test compound in the plasma and the brain were measured.
(§2) In the table, Ex. No. means the Example number. Inhibition (%) is the loot-tapping inhibition rate, and Cone. (nM) is the drug concentration in the brain.

A further data set has as its target human CYP3A4 (Homo sapiens (Human), UniProt P08684). The data set can be described thus: Inhibitory effect on CYP3A4. The conditions noted are these: 30-minute pre-incubation, Luciferin-IPA substrate; read-out: IC50 (μM), CYP3A4 inhibition. The format is in vitro ADME. On the procedure:
Inhibitory Effect on CYP3A4
Enzyme reaction was performed by incubating in a potassium phosphate buffer solution (pH 7.4) containing 1 nM to 20 μM test compound, 3.2 mM magnesium chloride, 0.2 pmol human CYP3A4 (BD Biosciences), 0.5 mM reduced nicotinamide adenine dinucleotide phosphate (NADPH) and 3 μM Luciferin-IPA (Promega) at 37° C. for 10 minutes. The volume of the reaction solution was 50 μL/well. The 30-minute pre-incubation group was incubated at 37° C. for 30 minutes before adding tire substrate, the Luciferin-IPA solution (12.5 μL/well). At the end of the enzyme reaction, 50 μL/well of a Luciferin detection reagent (Promega) was added to the wells, and the plate was left at room temperature for 20 minutes. Then, the emission intensities were measured with Infinite M1000 (TECAN). The enzyme activities (%) relative to the value of the group to which the test compound was not added were calculated.

For another data set, the target named is NK1 receptor (Meriones unguiculatus (Mongolian jird) (Gerbillus unguiculatus), UniProt Q5DUB1). The data set can be described thus: Effect on foot-tapping induced by NK1 receptor agonist GR73632. The format is in vivo. The following applies: male gerbil, 0.1 mg/kg iv, GR73632 after four hours. As to the method: (1) Effect on Foot-Tapping
The test compound solution was prepared by dissolving the test compound in a vehicle (a mixture of 50% N,N-dimethylacetamide (Wako Pure Chemical Industries), 30% propylene glycol (Wako Pure Chemical Industries). 4% 2-hydroxypropyl-β-cyclodextrin (Wako Pure Chemical Industries) and 16% distilled water).
as §1, §2

Sequence of human NK1 receptor (P25103 whole entry): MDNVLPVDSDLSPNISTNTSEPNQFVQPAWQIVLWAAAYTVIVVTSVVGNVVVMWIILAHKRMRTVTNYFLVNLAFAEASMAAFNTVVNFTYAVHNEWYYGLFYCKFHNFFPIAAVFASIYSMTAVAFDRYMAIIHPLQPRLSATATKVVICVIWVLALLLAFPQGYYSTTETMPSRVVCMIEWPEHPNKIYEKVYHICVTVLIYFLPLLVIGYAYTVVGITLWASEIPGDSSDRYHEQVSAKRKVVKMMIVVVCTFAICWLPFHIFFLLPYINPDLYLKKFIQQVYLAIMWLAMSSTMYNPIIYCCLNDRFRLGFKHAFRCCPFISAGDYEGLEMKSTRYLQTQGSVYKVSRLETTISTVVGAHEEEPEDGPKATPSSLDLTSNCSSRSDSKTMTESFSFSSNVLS
Sequence of human CYP3A4 (P08684 whole entry): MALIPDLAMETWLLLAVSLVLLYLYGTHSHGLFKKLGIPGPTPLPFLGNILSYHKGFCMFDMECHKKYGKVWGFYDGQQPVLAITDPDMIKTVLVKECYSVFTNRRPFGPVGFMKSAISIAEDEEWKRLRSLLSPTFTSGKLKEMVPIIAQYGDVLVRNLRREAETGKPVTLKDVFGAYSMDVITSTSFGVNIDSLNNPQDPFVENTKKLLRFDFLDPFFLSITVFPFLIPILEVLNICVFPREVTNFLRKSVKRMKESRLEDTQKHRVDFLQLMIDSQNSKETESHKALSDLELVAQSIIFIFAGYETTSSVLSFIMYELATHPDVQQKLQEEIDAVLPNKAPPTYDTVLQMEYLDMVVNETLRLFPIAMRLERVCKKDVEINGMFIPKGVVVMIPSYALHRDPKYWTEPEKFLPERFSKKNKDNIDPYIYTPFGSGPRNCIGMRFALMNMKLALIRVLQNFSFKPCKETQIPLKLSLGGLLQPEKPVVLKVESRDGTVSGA
Sequence of NK1 receptor (Q5DUB1 whole entry): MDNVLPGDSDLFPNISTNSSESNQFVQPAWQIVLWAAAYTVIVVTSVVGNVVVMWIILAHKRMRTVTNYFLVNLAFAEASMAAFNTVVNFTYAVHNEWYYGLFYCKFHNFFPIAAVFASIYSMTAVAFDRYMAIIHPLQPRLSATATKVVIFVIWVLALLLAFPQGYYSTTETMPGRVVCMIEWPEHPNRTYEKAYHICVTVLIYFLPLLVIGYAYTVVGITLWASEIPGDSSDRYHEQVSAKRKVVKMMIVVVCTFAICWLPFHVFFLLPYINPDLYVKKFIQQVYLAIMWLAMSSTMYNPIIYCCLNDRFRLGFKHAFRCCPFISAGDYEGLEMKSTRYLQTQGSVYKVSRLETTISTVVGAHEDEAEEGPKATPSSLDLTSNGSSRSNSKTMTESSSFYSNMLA

Take `Cc1cc(F)ccc1-c1cc(C2CCC(CC(=O)O)CC2)nc(C)c1N(C)C(=O)C(C)(C)c1cc(C(F)(F)F)cc(C(F)(F)F)c1` (stereo not shown) [Example 18, {4-[5-{[2-(3,5-Bistrifluoromethylphenyl)-2-methylpropionyl]methylamino}-4-(4-fluoro-2-methylphenyl)-6-methylpyridin-2-yl]cyclohexyl}acetic Acid]: the IC50 on human NK1 receptor stood at 6.45 nM; at human CYP3A4, 4.9 µM. In addition, the “Conc. (nM), drug concentration in the brain” value in data set [1] stood at 47 nM. Moreover, the “Inhibition (%), foot-tapping inhibition rate” value on NK1 receptor is recorded as 100%.

Values taken from patent publication US10011568B2, “Cyclohexyl pyridine derivative” (priority 2014, dated 2018).
